Reference: patent US20060069132A1, “Azolecarboxamide herbicides” (priority 2004, published 2006)

Key:
[1] = test system: barnyardgrass; experiment: Test A pre-/postemergence herbicide test; assay type: in vivo, Echinochloa crus-galli
Summary of the method: (§1)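 Both application timings were run together: directed soil spray over freshly planted seeds in sandy loam, and runoff spray onto 2–10 cm seedlings. Evaluation after ~10 days in greenhouse used a 0–100 visual scale versus untreated controls.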

[2] = test system: large crabgrass; experiment: Test A pre-/postemergence herbicide test; assay type: in vivo, Digitaria sanguinalis
Summary of the method: as §1

[3] = test system: giant foxtail; experiment: Test A pre-/postemergence herbicide test; assay type: in vivo, Setaria faberi
Summary of the method: as §1

[4] = test system: morningglory; experiment: Test A pre-/postemergence herbicide test; assay type: in vivo, Ipomoea spp.
Summary of the method: as §1

[5] = test system: redroot pigweed; experiment: Test A pre-/postemergence herbicide test; assay type: in vivo, Amaranthus retroflexus
Summary of the method: as §1

[6] = test system: velvetleaf; experiment: Test A pre-/postemergence herbicide test; assay type: in vivo, Abutilon theophrasti
Summary of the method: as §1

[7] = test system: barnyardgrass; experiment: Test B pre-/postemergence herbicide test; assay type: in vivo, Echinochloa crus-galli; conditions: for Plant response rating, Barnyardgrass: preemergence; for Barnyardgrass plant response rating: postemergence, visual rating, scale 0 (no effect) to 100 (complete control)
Summary of the method: (§2)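 Plants compared with untreated controls 13–15 days post-treatment and given a visual 0–100 injury score. Applications: preemergence to seeds; postemergence at 1- to 4-leaf (2–18 cm); paddy species flooded, 2-leaf stage. Vehicle non-phytotoxic, surfactant included.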

[8] = test system: Surinam grass; experiment: Test B pre-/postemergence herbicide test; assay type: in vivo, Urochloa decumbens; conditions: for Plant response rating, Surinam Grass: preemergence; for Surinam Grass plant response rating: postemergence, visual rating, scale 0 (no effect) to 100 (complete control)
Summary of the method: (§3)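 Formulation: non-phytotoxic solvent mix with surfactant. Timing: preemergence on seed and postemergence on 2–18 cm plants, applied concurrently. Readout after 13–15 d greenhouse: visual 0–100 control rating against controls.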

[9] = test system: cocklebur; experiment: Test B pre-/postemergence herbicide test; assay type: in vivo, Xanthium strumarium; conditions: for Plant response rating, Cocklebur: preemergence; for Cocklebur plant response rating: postemergence, visual rating, scale 0 (no effect) to 100 (complete control)
Summary of the method: as §2

[10] = test system: corn; experiment: Test B pre-/postemergence herbicide test; assay type: in vivo, Zea mays; conditions: for Plant response rating, Corn: preemergence; for Corn plant response rating: postemergence, visual rating, scale 0 (no effect) to 100 (complete control)
Summary of the method: as §3

[11] = test system: large crabgrass; experiment: Test B pre-/postemergence herbicide test; assay type: in vivo, Digitaria sanguinalis; conditions: for Plant response rating, Crabgrass, Large: preemergence; for Crabgrass, Large plant response rating: postemergence, visual rating, scale 0 (no effect) to 100 (complete control)
Summary of the method: as §3

[12] = test system: giant foxtail; experiment: Test B pre-/postemergence herbicide test; assay type: in vivo, Setaria faberi; conditions: for Plant response rating, Foxtail, Giant: preemergence; for Foxtail, Giant plant response rating: postemergence, visual rating, scale 0 (no effect) to 100 (complete control)
Summary of the method: as §3

[13] = test system: lambsquarters; experiment: Test B pre-/postemergence herbicide test; assay type: in vivo, Chenopodium album; conditions: for Plant response rating, Lambsquarters: preemergence; for Lambsquarters plant response rating: postemergence, visual rating, scale 0 (no effect) to 100 (complete control)
Summary of the method: as §3

[14] = test system: morningglory; experiment: Test B pre-/postemergence herbicide test; assay type: in vivo, Ipomoea coccinea; conditions: for Plant response rating, Morningglory: preemergence; for Morningglory plant response rating: postemergence, visual rating, scale 0 (no effect) to 100 (complete control)
Summary of the method: as §2

[15] = test system: pigweed; experiment: Test B pre-/postemergence herbicide test; assay type: in vivo, Amaranthus retroflexus; conditions: for Plant response rating, Pigweed: preemergence; for Pigweed plant response rating: postemergence, visual rating, scale 0 (no effect) to 100 (complete control)
Summary of the method: as §3

[16] = test system: rice; experiment: Test B pre-/postemergence herbicide test; assay type: in vivo, Oryza sativa; conditions: 500 g ai/ha; visual rating 0-100, 0 no effect, 100 complete control; preemergence
Summary of the method: as §3

[17] = test system: velvetleaf; experiment: Test B pre-/postemergence herbicide test; assay type: in vivo, Abutilon theophrasti; conditions: for Plant response rating, Velvetleaf: preemergence; for Velvetleaf plant response rating: postemergence, visual rating, scale 0 (no effect) to 100 (complete control)
Summary of the method: as §3

[18] = test system: blackgrass; experiment: Test B postemergence herbicide test; assay type: in vivo, Alopecurus myosuroides; conditions: postemergence, visual rating, scale 0 (no effect) to 100 (complete control)
Summary of the method: (§4)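 Formulated test chemicals went onto postemergence plants measuring 2 to 18 cm, at one to four leaves. For the paddy assay, species had reached two leaves. Scoring took place 13–15 days later by eye, relative to untreated plants, using 0 for no effect up to 100 for full control.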

[19] = test system: wheat; experiment: Test B postemergence herbicide test; assay type: in vivo, Triticum aestivum; set-up: key to Wheat plant response rating: 0 = no effect, 100 = complete control; conditions: postemergence, visual rating, scale 0 (no effect) to 100 (complete control)
Summary of the method: as §4

[20] = test system: wild oat; experiment: Test B postemergence herbicide test; assay type: in vivo, Avena fatua; conditions: postemergence, visual rating, scale 0 (no effect) to 100 (complete control)
Summary of the method: as §4

[21] = test system: rice; experiment: Test B flooded paddy test; assay type: in vivo, Oryza sativa; conditions: 1000 g ai/ha, visual rating, scale 0 to 100 (0 no effect, 100 complete control), 13 to 15 days
Summary of the method: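 Scale 0–100: zero equals no visible effect, 100 complete control, judged by eye relative to controls. Timing: 13 to 15 days in greenhouse post-treatment. Growth stage at spraying: two leaves (paddy) or one to four leaves, 2–18 cm (postemergence).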

[22] = test system: small flower umbrella sedge; experiment: Test B flooded paddy test; assay type: in vivo, Cyperus difformis; conditions: 1000 g ai/ha, visual rating, scale 0 to 100 (0 no effect, 100 complete control), 13 to 15 days
Summary of the method: as §4

[23] = test system: ducksalad; experiment: Test B flooded paddy test; assay type: in vivo, Heteranthera limosa; conditions: 1000 g ai/ha, visual rating, scale 0 to 100 (0 no effect, 100 complete control), 13 to 15 days
Summary of the method: as §4

[24] = test system: barnyardgrass; experiment: Test B flooded paddy test; assay type: in vivo, Echinochloa crus-galli; conditions: 1000 g ai/ha, visual rating, scale 0 to 100 (0 no effect, 100 complete control), 13 to 15 days
Summary of the method: as §4

[25] = Postemergence, 250 g ai/ha, 0 to 100 scale, 0 no effect, 100 complete control
[26] = Postemergence, 1000 g ai/ha, 0 to 100 scale, 0 no effect, 100 complete control
[27] = Preemergence, 1000 g ai/ha, visual rating, 0 to 100 scale (0 no effect, 100 complete control)
[28] = preemergence, 250 g ai/ha, visual injury, 0 to 100 scale (0 no effect, 100 complete control)
[29] = 500 g ai/ha, visual rating 0-100, 0 no effect, 100 complete control
[30] = 125 g ai/ha, 0 to 100 scale, 0 is no effect, 100 is complete control

CCn1nc(C(C)(C)C)cc1C(=O)Nc1cccc(S(C)(=O)=O)c1 [Compound 133]
40: Barnyardgrass plant response rating ([7]; 500 g ai/ha) | Plant response rating, Foxtail, Giant [12, 29] | Plant response rating, Rice [16] | Sedge, Umbrella plant response rating [22]
80: Crabgrass, Large plant response rating [2, 27] | Plant response rating, Crabgrass, Large [11, 29]
20: Barnyardgrass plant response rating [1, 25] | Plant response rating, Crabgrass, Large [2, 26] | Plant response rating, Foxtail, Giant [3, 26] | Plant response rating, Morningglory [4, 26] | Plant response rating, Surinam Grass [8, 29] | Corn plant response rating ([10]; 500 g ai/ha) | Plant response rating, Crabgrass, Large [11, 30] | Foxtail, Giant plant response rating ([12]; 500 g ai/ha) | Morningglory plant response rating ([14]; 500 g ai/ha) | Pigweed plant response rating ([15]; 125 g ai/ha) | Plant response rating, Velvetleaf [17, 30] | Oat, Wild plant response rating ([20]; 125 g ai/ha) | Oat, Wild plant response rating ([20]; 500 g ai/ha) | Barnyardgrass plant response rating [24]
65: Pigweed plant response rating [5, 27]
50: Surinam Grass plant response rating ([8]; 500 g ai/ha) | Plant response rating, Lambsquarters [13, 30] | Pigweed plant response rating ([15]; 500 g ai/ha) | Velvetleaf plant response rating ([17]; 500 g ai/ha) | Ducksalad plant response rating [23]
15: Plant response rating, Velvetleaf [6, 26]
0: Barnyardgrass plant response rating [1, 28] | Foxtail, Giant plant response rating [3, 28] | Morningglory plant response rating [4, 27] | Morningglory plant response rating [4, 28] | Barnyardgrass plant response rating ([7]; 125 g ai/ha) | Surinam Grass plant response rating ([8]; 125 g ai/ha) | Plant response rating, Surinam Grass [8, 30] | Plant response rating, Cocklebur [9, 29] | Plant response rating, Cocklebur [9, 30] | Plant response rating, Corn [10, 29] | Plant response rating, Corn [10, 30] | Foxtail, Giant plant response rating ([12]; 125 g ai/ha) | Plant response rating, Foxtail, Giant [12, 30] | Blackgrass plant response rating ([18]; 125 g ai/ha) | Wheat plant response rating ([19]; 125 g ai/ha) | Wheat plant response rating ([19]; 500 g ai/ha) | Rice plant response rating [21]
30: Foxtail, Giant plant response rating [3, 27] | Pigweed plant response rating [5, 25] | Crabgrass, Large plant response rating ([11]; 500 g ai/ha)
10: Crabgrass, Large plant response rating [2, 25] | Foxtail, Giant plant response rating [3, 25] | Morningglory plant response rating [4, 25] | Pigweed plant response rating [5, 28] | Velvetleaf plant response rating [6, 25] | Plant response rating, Barnyardgrass [7, 30] | Cocklebur plant response rating ([9]; 125 g ai/ha) | Corn plant response rating ([10]; 125 g ai/ha) | Crabgrass, Large plant response rating ([11]; 125 g ai/ha) | Plant response rating, Morningglory [14, 29] | Morningglory plant response rating ([14]; 125 g ai/ha) | Plant response rating, Morningglory [14, 30] | Velvetleaf plant response rating ([17]; 125 g ai/ha) | Blackgrass plant response rating ([18]; 500 g ai/ha)
35: Velvetleaf plant response rating [6, 27]
60: Plant response rating, Barnyardgrass [7, 29] | Cocklebur plant response rating ([9]; 500 g ai/ha) | Lambsquarters plant response rating ([13]; 125 g ai/ha)
25: Crabgrass, Large plant response rating [2, 28]
75: Plant response rating, Pigweed [5, 26]
45: Barnyardgrass plant response rating [1, 27]
5: Velvetleaf plant response rating [6, 28]
100: Plant response rating, Lambsquarters [13, 29] | Plant response rating, Pigweed [15, 29] | Plant response rating, Pigweed [15, 30]
70: Lambsquarters plant response rating ([13]; 500 g ai/ha) | Plant response rating, Velvetleaf [17, 29]
55: Plant response rating, Barnyardgrass [1, 26]
